From ChEMBL document CHEMBL1157286, “Schisandrene, a dibenzocyclooctadiene lignan from Schisandra chinensis: structure-antioxidant activity relationships of dibenzocyclooctadiene lignans” (J Nat Prod, 2006) come the findings set out here.

The source made the active and inactive calls. The rule behind the calls is not given here.

One series has as its system LLC-PK1. Nature of the series: Cytotoxicity against pig LLC-PK1 cells upto 48 uM. The class given is cell-based, Sus scrofa.
The next series deals with Vero. Nature of the series: Cytotoxicity against african green monkey Vero cells upto 48 uM. The class given is cell-based. Conditions: chlorocebus sabaeus.
In series [1] the test system is HL-60. Put plainly: Antioxidant activity in human HL60 cells assessed as inhibition of TPA-stimulated hydrogen peroxide induced DCFH-DA oxidation by fluorometric microplate assay. It is filed as functional, cell-based.
The test system of series [2] is HL-60. Nature of the series: Cytotoxicity against human HL60 cells by XTT assay. It is filed as functional, cell-based. In general terms: Formazan colour is commonly taken as a measure of viable cells.

Regarding `C/C=C(/C)C(=O)O[C@H]1c2cc(OC)c(OC)c(OC)c2-c2c(cc3c(c2OC)OCO3)C[C@H](C)[C@]1(C)O` [GOMISIN B], the Activity result in the series on LLC-PK1 and with Vero was “Not Active” throughout.
As for `COc1c2c(cc3c1-c1c(cc4c(c1OC)OCO4)C[C@H](C)[C@H](C)C3)OCO2` [SCHISANDRIN C], the Activity result with LLC-PK1 and in the series on Vero was “Not Active” in each case. Moreover, in the series with HL-60 [1], the outcome was inactive. For the same molecule, in the series with HL-60 [2], the IC50 is 41.2 µM.
With `COc1cc2c(c(O)c1OC)-c1c(cc(OC)c(OC)c1OC)CC(C)C(C)C2` (centres undefined) [GOMISIN K3], the Activity result in the series on LLC-PK1 and with Vero was “Not Active” throughout. In addition, the IC50 is more than 155 µM in the series on HL-60 [1] and 56.2 µM in the series on HL-60 [2].
As to `COc1cc2c(c(OC)c1OC)-c1c(cc3c(c1OC)OCO3)C[C@H](C)[C@@](C)(O)C2` [GOMISIN A], the Activity entry in the series with LLC-PK1 and in the series on Vero was “Not Active” throughout.
For `COc1cc2c(c(OC)c1OC)-c1c(cc(OC)c(OC)c1OC(=O)c1ccccc1)CC(C)C(C)(O)C2` (centres undefined) [BENZOYLGOMISIN H], the Activity result in the series on LLC-PK1 and with Vero was “Not Active” throughout. Besides, the outcome in the series on HL-60 [1] was inactive. This molecule also returned an IC50 in the series with HL-60 [2] of 41.2 µM.
On to `COc1cc2c(c(OC)c1OC)-c1c(cc(OC)c(OC)c1OC)C[C@](C)(O)[C@@H](C)C2` [SCHIZANDRIN], for which the Activity result in the series on LLC-PK1 and in the series with Vero was “Not Active” each time. Moreover, the outcome in the series with HL-60 [1] and in the series on HL-60 [2] was inactive.
In the case of `C/C=C(\C)C(=O)Oc1c(OC)c(OC)cc2c1-c1c(cc(OC)c(OC)c1OC)C[C@](C)(O)[C@@H](C)C2` [TIGLOYLGOMISIN H], the Activity entry with LLC-PK1 and with Vero was “Not Active” in each case. In addition, the IC50 in the series on HL-60 [1] was more than 125 µM; in the series on HL-60 [2], 44.3 µM.
In the case of `Cc1c(C)c2c(c(C)c1O)CCC(C)(C(=O)O)O2` (centres undefined) [TROLOX], the IC50 in the series on HL-60 [1] worked out at 3.6 µM. In addition, in the series on HL-60 [2], the outcome was inactive.
In the case of `CC(Cc1ccc(O)c(O)c1)C(C)Cc1ccc(O)c(O)c1` (centres undefined) [NORDIHYDROGUAIARETIC ACID], the figures for the IC50 with HL-60 [1] and in the series on HL-60 [2] were 2.3 µM and 12.2 µM, respectively.
For `COc1cc2c(c(OC)c1OC)-c1c(cc(OC)c(OC)c1OC)C[C@H](C)[C@H](C)C2` [SCHISANDRIN A], the Activity entry in the series on LLC-PK1 and in the series with Vero was “Not Active” each time. Also, the result in the series on HL-60 [1] and in the series on HL-60 [2] was inactive.
In the case of `COc1cc2c(c(OC)c1OC)-c1c(cc3c(c1OC)OCO3)C[C@H](C)[C@H](C)C2` [WUWEIZISU B], the Activity entry in the series with LLC-PK1 and in the series with Vero was “Not Active” each time. In the series on HL-60 [1], the outcome was inactive. The molecule further returned an IC50 in the series on HL-60 [2] of 52.4 µM.
As to `C/C=C(/C)C(=O)Oc1c(OC)c(OC)cc2c1-c1c(cc(OC)c(OC)c1OC)CC(C)(O)C(C)C2` (centres undefined) [ANGELOYLGOMISIN], the Activity entry in the series with LLC-PK1 and in the series with Vero was “Not Active” in each case. Further, the IC50 with HL-60 [1] came out at 81.5 µM; with HL-60 [2], 45.3 µM.
Consider `C=C1[C@H](C)Cc2cc3c(c(OC)c2-c2c(cc4c(c2OC)OCO4)[C@H]1OC(=O)c1ccccc1)OCO3` [SCHISANDRENE], for which the Activity entry in the series with LLC-PK1 and in the series with Vero was “Not Active” throughout. Besides, the IC50 in the series with HL-60 [1] was 2.8 µM; in the series with HL-60 [2] it was 55.8 µM.
With `COc1cc2c(c(OC)c1OC)-c1c(cc3c(c1OC)OCO3)[C@H](OC(=O)c1ccccc1)[C@@](C)(O)[C@@H](C)C2` [GOMISIN G], the Activity entry in the series with LLC-PK1 and in the series on Vero was “Not Active” in each case. The IC50 with HL-60 [1] came to 38.2 µM; with HL-60 [2] it was 48.3 µM.
Consider `O=C1O[C@H]([C@@H](O)CO)C(O)=C1O` [ASCORBIC ACID], for which the IC50 in the series on HL-60 [1] is 10.2 µM. In the series with HL-60 [2], the result was inactive.
With `C/C=C(\C)C(=O)O[C@H]1c2cc(OC)c(OC)c(OC)c2-c2c(cc3c(c2OC)OCO3)C[C@H](C)[C@]1(C)O` [GOMISIN B], the IC50 with HL-60 [1] is more than 116 µM. Besides, the outcome in the series on HL-60 [2] was inactive.
In the case of `COc1cc2c(c(OC)c1OC)-c1c(cc3c(c1OC)OCO3)C[C@H](C)[C@](C)(O)C2`, the result in the series with HL-60 [1] and in the series with HL-60 [2] was inactive.

One may read the IC50 as the concentration at which inhibition is half-maximal.
